Source: article PMC7650622, “3D-Printed Bubble-Free Perfusion Cartridge System for Live-Cell Imaging” (Sensors (Basel, Switzerland), 2020)

Target: T1, Or13a cells (OR from Drosophila melanogaster with Orco) (Drosophila melanogaster, UniProt Q9VXL0)
T1 construct: with Odorant receptor coreceptor
T1 sequence (Q9VXL0 1-418): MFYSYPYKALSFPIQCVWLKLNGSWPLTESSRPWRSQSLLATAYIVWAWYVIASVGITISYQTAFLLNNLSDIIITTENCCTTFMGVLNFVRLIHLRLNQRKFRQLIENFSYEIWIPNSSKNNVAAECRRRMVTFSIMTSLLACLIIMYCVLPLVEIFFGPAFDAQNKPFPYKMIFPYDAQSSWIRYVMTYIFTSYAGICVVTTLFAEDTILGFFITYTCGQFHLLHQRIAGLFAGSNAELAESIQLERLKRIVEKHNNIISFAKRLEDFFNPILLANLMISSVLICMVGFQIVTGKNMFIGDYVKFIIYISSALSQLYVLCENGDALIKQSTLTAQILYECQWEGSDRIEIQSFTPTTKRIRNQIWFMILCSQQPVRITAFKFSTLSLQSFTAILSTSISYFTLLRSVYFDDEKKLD
T1 sequence (Q9VNB5 1-486 partner): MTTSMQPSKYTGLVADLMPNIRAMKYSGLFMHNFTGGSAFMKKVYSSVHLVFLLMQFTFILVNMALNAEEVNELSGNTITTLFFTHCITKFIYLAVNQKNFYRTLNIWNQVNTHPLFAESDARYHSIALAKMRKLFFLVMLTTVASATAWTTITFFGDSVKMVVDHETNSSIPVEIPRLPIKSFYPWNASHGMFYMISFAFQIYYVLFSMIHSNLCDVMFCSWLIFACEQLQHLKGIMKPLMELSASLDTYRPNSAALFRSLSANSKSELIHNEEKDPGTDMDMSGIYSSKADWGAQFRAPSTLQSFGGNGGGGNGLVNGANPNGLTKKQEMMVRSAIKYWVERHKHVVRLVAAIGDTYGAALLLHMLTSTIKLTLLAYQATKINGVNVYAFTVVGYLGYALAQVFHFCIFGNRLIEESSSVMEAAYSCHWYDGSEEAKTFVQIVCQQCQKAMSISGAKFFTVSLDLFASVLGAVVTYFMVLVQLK
Test: GCaMP6s calcium imaging of Sf21 cells, dose-response
Assay type: cell-based

Q: With `C=CC(O)CCCCC` (stereo not shown) [1-octen-3-ol] as the compound, how does the EC50 read?
A: The EC50 was 8.37 µM.
